# Source: patent publication US20060009425A1, “Oral formulations of paricalcitol” (priority 2004, published 2006)
# Assays:
# [1] = tested on: serum parathyroid hormone (PTH) levels; assay: Phase 3 placebo-controlled TIW study, iPTH reduction (Example 7); assay type: in vivo, human
# Description: Methodology: This was a Phase 3, prospective, randomized, placebo-controlled, double-blind, 24-week Treatment Phase, multi-center study in CKD (Stages 3 and 4) subjects with elevated PTH levels (≧150 pg/mL). Subjects were randomized in an equal ratio (1:1) to 1 of 2 treatment groups: paricalcitol capsule (Group 1) and placebo (Group 2). Potential subjects underwent procedures to determine their baseline intact PTH (iPTH), calcium, and phosphorus levels for eligibility to receive treatment.
# (§1) During the Treatment Phase, subjects were to self-administer study drug 3 times weekly, on Monday, Wednesday and Friday, for a total of 24 weeks. The initial dose was 2 or 4 mcg (depending on baseline iPTH levels). Procedures to be performed during the Treatment Phase included vital signs, chemistry and hematology, urinary pyridinoline, urinary deoxypyridinoline, serum bone-specific alkaline phosphatase, serum osteocalcin, urinalysis, spot urine for calcium/creatinine ratio, and recording of adverse events and concurrent medications. Serum iPTH, calcium, phosphorus, and albumin were measured every 2 weeks. Dose adjustments were to be made according to these chemistry results for iPTH, calcium, and phosphorus. Doses may have been increased in 2 mcg increments every 4 weeks.
# Efficacy: The primary efficacy endpoint was the achievement of 2 consecutive ≧30% decreases from baseline iPTH levels. The secondary efficacy analyses include change and percent change from baseline analyses in iPTH and change from baseline analyses in biochemical bone markers.
# The Intent-To-Treat population (Full Analysis Set) was defined as all randomized subjects with a baseline iPTH and at least 2 on-treatment iPTH measurements. This population was used in the primary efficacy analysis.
# [2] = tested on: biochemical bone activity markers; assay: Phase 3 TIW study, biochemical bone activity markers (Table D); assay type: in vivo, human; details: CKD Stage 3 and 4, TIW treated subjects (Table D)
# Description: Serum bone-specific alkaline phosphate and serum osteocalcin are considered more sensitive bone markers to evaluate degree of bone remodeling than urinary bone marker. […] As shown in Examples 5-7 and Tables C (Example 5), Table D (Example 6) and Table E (Example 7), certain biochemical bone activity marker variables were analyzed in CKD Stage 3 and 4 subjects. These subjects received treatment with the oral formulations of the present invention or a placebo. The bone markers examined in these subjects were serum osteocalcin, serum bone-specific alkaline phosphatase, urinary pyridinoline, and deoxypyridinoline. If more than 1 biochemical bone activity marker measurement existed for a subject on a particular day, the higher measurement was considered to be that subject's biochemical bone activity marker measurement for that day. […] The Final Visit measurement was defined as the last biochemical bone activity marker measurement following the first dose of study drug.
# The Week 11 Visit measurement was defined as the biochemical bone activity marker measurement on the day closest to the Week 11 scheduled visit, for which the possible measurements to choose from were those collected within 64 and 77 days following the first dose of study drug.
# Changes from baseline to Week 11 Visit and to Final Visit in biochemical bone activity markers were compared between oral paricalcitol and placebo using an ANOVA with treatment as the factor on the combined Phase 3 all treated subject population (Table F). Also, the changes from baseline to Week 11 Visit and to Final Visit were compared between oral paricalcitol and placebo using an ANCOVA with baseline as the second factor on the combined Phase 3 all treated subject population (Table G).
# as §1
smiles,measurement,setting,value
"C[C@H](/C=C/[C@H](C)C(C)(C)O)[C@H]1CC[C@H]2/C(=C/C=C3C[C@@H](O)C[C@H](O)C3)CCC[C@]12C [Paricalcitol, 19-nor-1α,3β,25-trihydroxy-9,10-secoergosta-5(Z); 7(E),22(E)-triene]",subjects with 4 consecutive ≧30% decreases from baseline in iPTH,"[1]; 26/32, exploratory analysis",81%
same,subjects with 2 consecutive ≧30% decreases from baseline in iPTH,"[1]; 29/32, TIW, 24 weeks, CKD Stages 3 and 4",91%
same,30% mean reduction in iPTH occurred by,[1]; TIW,≤ 9 Week
same,mean change from baseline in iPTH at the Final Visit,"[1]; TIW, 24 weeks",-80.7 pg/mL
same,mean change from baseline in iPTH at the Last On-Treatment Visit,"[1]; TIW, 24 weeks",-83.1 pg/mL
same,percent decrease in iPTH at the Final Visit,"[1]; TIW, 24 weeks",30.3%
same,percent decrease in iPTH at the Last On-Treatment Visit,"[1]; TIW, 24 weeks",33.4%
same,maximum decrease from baseline in iPTH,[1]; observed at Week 17,−48.2%
same,"Serum Bone-Specific Alkaline Phosphatase, Change from Baseline (SE) to Final",[2],−8.179 (1.2010) mcg/L
same,"Serum Bone-Specific Alkaline Phosphatase, Change from Baseline (SE) to Week 11",[2],−5.078 (0.9420) mcg/L
same,"Serum Osteocalcin, Change from Baseline (SE) to Final",[2],−18.92 (3.973) ng/mL
same,"Serum Osteocalcin, Change from Baseline (SE) to Week 11",[2],−6.96 (3.259) ng/mL
same,"Urinary Deoxypyridinoline, Change from Baseline (SE) to Final",[2],−0.0182 (0.0062) nmol/mg Creat
same,"Urinary Deoxypyridinoline, Change from Baseline (SE) to Week 11",[2],−0.0144 (0.00813) nmol/mg Creat
same,"Urinary Pyridinoline, Change from Baseline (SE) to Final",[2],−7.11 (2.828) nmol/mmol Creat
same,"Urinary Pyridinoline, Change from Baseline (SE) to Week 11",[2],−4.87 (3.725) nmol/mmol Creat
